Consider 11 compounds from patent US20220220155A1, “VASCULAR C[…] USE THEREOF” (priority 2019, published 2022).

By inhibition is commonly meant the drop in the measured response relative to a control, in per cent.

Where a SMILES comes first, the peptide text is derived from it. [ ]: non-standard residue; d: D form. ξ: configuration not given here. ξD = NC(CC(=O)O)C(=O)O

The target in test [1] is T1, PLA2-treated LDL (Homo sapiens, UniProt P04114).
T1 construct: from tissue; host or cells: pooled normolipemic human plasma
T1 sequence (P04114 28-4563): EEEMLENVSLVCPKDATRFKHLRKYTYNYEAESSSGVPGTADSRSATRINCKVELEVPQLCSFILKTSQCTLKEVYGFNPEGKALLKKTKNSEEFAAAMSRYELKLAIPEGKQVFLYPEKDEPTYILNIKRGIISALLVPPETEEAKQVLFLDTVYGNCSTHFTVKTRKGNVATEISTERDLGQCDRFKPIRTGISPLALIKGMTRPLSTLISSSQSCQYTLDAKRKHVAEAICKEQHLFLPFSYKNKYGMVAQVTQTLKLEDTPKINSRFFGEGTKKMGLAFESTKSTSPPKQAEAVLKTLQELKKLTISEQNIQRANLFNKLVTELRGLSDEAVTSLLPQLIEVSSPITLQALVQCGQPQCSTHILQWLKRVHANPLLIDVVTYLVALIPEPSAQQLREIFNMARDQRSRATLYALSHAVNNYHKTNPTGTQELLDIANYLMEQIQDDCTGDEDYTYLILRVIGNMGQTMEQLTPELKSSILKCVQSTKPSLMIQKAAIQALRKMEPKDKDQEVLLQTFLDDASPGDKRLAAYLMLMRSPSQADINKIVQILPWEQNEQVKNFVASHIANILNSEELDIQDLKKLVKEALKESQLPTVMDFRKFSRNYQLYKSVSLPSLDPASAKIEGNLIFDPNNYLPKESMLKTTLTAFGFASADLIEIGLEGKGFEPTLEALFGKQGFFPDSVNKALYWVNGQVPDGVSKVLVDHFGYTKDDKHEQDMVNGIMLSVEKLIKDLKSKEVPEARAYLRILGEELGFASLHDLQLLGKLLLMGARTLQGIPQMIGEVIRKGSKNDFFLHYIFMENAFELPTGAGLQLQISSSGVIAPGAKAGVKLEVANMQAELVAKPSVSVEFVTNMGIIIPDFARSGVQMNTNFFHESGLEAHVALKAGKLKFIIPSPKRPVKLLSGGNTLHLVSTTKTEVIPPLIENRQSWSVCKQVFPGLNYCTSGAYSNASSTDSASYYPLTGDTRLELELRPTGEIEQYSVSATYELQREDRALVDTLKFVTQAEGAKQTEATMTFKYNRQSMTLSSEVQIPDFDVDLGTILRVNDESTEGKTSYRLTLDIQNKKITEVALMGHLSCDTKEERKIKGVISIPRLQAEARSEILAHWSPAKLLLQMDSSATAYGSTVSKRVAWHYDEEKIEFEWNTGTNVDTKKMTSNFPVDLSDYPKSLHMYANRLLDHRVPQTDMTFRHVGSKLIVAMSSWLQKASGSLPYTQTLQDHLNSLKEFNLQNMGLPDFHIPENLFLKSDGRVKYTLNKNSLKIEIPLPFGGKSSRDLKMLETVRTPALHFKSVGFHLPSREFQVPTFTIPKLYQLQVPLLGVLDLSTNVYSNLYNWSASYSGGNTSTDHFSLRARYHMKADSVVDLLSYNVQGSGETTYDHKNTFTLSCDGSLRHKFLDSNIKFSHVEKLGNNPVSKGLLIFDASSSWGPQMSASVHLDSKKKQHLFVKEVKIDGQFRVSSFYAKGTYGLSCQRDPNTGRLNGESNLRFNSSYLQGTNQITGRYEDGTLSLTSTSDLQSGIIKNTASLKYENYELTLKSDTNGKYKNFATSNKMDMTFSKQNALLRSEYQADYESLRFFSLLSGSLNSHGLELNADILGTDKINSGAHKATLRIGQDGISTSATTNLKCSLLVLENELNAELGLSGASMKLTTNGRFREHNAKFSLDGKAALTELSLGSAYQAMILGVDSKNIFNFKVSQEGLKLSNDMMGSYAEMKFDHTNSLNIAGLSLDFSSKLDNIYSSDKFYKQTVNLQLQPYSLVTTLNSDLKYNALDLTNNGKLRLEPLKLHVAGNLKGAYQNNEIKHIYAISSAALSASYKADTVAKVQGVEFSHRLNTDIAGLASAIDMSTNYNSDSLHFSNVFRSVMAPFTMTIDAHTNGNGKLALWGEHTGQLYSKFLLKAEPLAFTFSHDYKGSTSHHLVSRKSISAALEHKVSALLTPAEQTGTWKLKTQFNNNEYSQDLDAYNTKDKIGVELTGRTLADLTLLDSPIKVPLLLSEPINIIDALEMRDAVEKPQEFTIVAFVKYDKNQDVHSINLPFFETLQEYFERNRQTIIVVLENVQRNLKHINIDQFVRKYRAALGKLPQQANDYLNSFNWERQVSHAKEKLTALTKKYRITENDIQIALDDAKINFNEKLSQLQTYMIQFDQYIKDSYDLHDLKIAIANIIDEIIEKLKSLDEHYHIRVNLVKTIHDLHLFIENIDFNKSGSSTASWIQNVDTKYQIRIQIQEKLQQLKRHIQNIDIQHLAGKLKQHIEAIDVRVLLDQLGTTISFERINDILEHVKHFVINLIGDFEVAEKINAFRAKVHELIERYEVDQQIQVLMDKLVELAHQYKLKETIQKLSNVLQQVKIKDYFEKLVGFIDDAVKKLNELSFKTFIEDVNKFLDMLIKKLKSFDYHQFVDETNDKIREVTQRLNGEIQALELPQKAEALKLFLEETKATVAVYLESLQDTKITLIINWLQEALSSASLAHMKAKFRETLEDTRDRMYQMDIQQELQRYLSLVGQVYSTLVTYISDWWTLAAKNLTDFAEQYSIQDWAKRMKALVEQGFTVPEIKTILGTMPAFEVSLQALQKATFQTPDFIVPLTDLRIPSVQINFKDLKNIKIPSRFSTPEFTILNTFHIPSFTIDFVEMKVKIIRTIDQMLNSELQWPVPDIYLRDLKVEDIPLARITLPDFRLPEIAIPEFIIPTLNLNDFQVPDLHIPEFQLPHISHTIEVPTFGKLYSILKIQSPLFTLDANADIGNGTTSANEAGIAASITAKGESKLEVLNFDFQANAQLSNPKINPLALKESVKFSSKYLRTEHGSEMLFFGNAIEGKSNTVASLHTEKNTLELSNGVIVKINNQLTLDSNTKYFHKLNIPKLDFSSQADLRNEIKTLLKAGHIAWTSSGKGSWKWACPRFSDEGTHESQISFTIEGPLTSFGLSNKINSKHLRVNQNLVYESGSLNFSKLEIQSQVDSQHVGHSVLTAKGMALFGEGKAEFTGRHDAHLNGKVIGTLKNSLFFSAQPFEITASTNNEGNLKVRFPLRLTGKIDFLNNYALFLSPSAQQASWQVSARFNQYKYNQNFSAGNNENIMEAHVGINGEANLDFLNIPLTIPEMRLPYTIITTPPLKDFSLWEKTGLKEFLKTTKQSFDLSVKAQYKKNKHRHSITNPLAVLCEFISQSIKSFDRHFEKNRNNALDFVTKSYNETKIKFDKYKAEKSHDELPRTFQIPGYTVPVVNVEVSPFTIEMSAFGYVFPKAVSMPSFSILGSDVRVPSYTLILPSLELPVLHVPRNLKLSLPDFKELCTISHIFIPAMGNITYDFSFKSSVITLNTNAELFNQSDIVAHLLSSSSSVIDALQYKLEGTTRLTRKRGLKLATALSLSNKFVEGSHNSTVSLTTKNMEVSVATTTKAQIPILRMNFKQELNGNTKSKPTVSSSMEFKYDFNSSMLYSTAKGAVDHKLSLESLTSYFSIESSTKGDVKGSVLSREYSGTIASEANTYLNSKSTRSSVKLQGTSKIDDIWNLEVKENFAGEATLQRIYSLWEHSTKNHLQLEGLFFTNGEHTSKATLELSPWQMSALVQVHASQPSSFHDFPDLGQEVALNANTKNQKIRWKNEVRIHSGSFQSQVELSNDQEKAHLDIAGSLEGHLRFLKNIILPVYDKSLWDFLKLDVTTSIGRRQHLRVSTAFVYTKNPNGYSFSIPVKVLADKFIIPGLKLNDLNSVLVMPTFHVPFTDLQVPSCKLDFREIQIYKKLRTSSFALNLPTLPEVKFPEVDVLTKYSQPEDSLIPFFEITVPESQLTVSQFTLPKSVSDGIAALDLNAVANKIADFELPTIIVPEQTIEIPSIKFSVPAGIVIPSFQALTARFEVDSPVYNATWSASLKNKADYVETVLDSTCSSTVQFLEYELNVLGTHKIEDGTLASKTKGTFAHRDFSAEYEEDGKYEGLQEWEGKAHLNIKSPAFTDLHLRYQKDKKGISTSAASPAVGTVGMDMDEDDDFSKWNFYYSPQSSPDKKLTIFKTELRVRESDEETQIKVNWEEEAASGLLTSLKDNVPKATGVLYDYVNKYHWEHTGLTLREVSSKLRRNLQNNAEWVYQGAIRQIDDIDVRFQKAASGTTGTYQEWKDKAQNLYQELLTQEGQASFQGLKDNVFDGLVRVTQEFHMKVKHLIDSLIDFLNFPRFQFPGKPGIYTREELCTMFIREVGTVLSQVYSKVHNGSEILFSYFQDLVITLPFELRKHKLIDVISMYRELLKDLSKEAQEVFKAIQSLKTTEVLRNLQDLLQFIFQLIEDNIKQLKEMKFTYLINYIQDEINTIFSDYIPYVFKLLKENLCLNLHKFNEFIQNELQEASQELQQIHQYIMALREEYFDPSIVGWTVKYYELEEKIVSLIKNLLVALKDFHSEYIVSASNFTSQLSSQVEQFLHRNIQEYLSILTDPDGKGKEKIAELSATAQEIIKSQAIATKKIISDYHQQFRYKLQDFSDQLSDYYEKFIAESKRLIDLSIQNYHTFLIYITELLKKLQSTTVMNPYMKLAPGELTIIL
Nature of the test: Anti-LDL aggregation assay, turbidimetry, aggregation induced by phospholipase A2 (PLA2). It is filed as biochemical. The settings on record: 18 h, read-out: Inhibition of LDL aggregation, PLA2-treated LDL. How it is done:
(§1) The efficacy of the novel compounds to inhibit the aggregation of LDL has been tested in two parallel turbidimetric assays differing from each other only in the enzyme used to induce LDL aggregation, namely sphingomyelinase (SMase) and phospholipase A2 (PLA2), respectively.
(§2) Human LDL (d1.019-d1.063 g/mL) were obtained from pooled normolipemic human plasma by sequential ultracentrifugation in a KBr density gradient. Briefly, VLDL were first discarded after spinning plasma at 36.000 rpm for 18 h at 4° C., VLDL-free plasma was layered with 1.063 g/mL KBr solution and centrifuged at 36,000 rpm for 18 h at 4° C. LDL were dialyzed against 0.02 M Tris, 0.15 M NaCl, 1 mM EDTA, pH 7.5 for 18 hours, and then against normal saline for 2 hours. Finally, isolated LDL were filter-sterilized. Protein concentration was determined using a colorimetric assay.
(§3) Human LDL particles (1.44 mg/mL) were incubated with 40 U/L of Bacillus cereus SMase or with 50 μg/L of type II secretory PLA2 from honey bee venom in 20 mM Tris buffer (pH 7.0) containing 150 mM NaCl, 2 mM CaCl2), and MgCl2 at 37° C. LDL incubation with SMase and PLA2 was performed at peptide concentration of 10 μM (ratio compound/ApoB-100: 4.7/1) for 18 hours. LDL lipolysis was stopped by addition of EDTA (final concentration 10 mM).
(§4) The efficiency of each novel compound to inhibit LDL aggregation induced by SMase and PLA2 was estimated by turbidimetry measuring the absorbance at a wavelength of 405 nm. Thus, the inhibitory activity was calculated according to Equation I.
(§5) a corresponds to the absorbance value in the presence of nLDL particles, LDL aggregating enzyme (i.e., SMase or PLA2) and test compound;
(§6) b corresponds to the absorbance value in the presence of only nLDL particles;
(§7) c corresponds to the absorbance value in the presence of nLDL particles and LDL aggregating enzyme (i.e., SMase or PLA2);

In test [2] the test system is human coronary vascular smooth muscle cells (hcVSMC). The test can be described thus: Inhibition of intracellular cholesterol accumulation induced by SMase (CE/FC ratio). Particulars: hcVSMC exposed 2 hours to SMase-LDL treated overnight with peptide 10 μM; CE and FC by thin layer chromatography and densitometry, Equation II. It is filed as cell-based. How it is done:
Thus, the inhibitory effect of the novel compounds on the intracellular cholesterol accumulation has been analysed in terms of decrease in the ratio of intracellular CE and free cholesterol FC content of hcVSMC exposed to LDL and SMase-LDL.
All cells used were from a unique batch in order to prevent variability from cell origin. Cell quiescence was induced by maintaining the cell culture for 24 hours in a medium. Serum-deprived cells between passages 4 and 8 were used for experiments. VSMCs at these passages appeared as a relatively homogeneous population, showing a hill-and-valley confluence pattern. Cell monolayers were grown in vascular cell basal medium supplemented with vascular smooth muscle growth kit components. Quiescent cells were 2-hours exposed to LDL treated with SMase (in absence or presence of peptides) overnight at a concentration of 10 μM previously checked its aggregation by a turbidimetry test. Cells were then either collected for lipid extraction or processed for confocal microscopy analysis.
Following the lipoprotein incubation period, hcVSMC were exhaustively washed (twice with PBS, twice with PBS supplemented with 1% BSA, and once with PBS supplemented with both 1% BSA and 100 U/mL heparin), before they were harvested into 1 mL of 0.15 M NaOH. Lipids were extracted using the Bligh and Dyer method. The lipid extract was redissolved in dichloromethane, applied to silica gel plates, and separated by thin layer chromatography. A mixture of cholesterol and cholesterol palmitate, were also run as standards. Heptane or a solvent combination of heptane/diethylether/acetic acid (74:21:4, v/v/v) were used as chromatographic mobile phase. After lipid separation, the plates were dried and stained as previously reported. Finally, the spots corresponding to cholesteryl ester (CE) and free cholesterol (FC) were quantitated by densitometry.
The efficacy of each novel compound to decrease the ratio of intracellular cholesteryl esters (CE) and free cholesterol (FC) content of hcVSMC exposed to LDL and SMase-LDL was calculated according to Equation II.
a corresponds to the CE/FC ratio in hcVSMC exposed to SMase-LDL and in the presence of the test compound.
b corresponds to the CE/FC ratio in hcVSMC exposed to nLDL in the absence of the test compound.
c corresponds to the CE/FC ratio in hcVSMC exposed to SMase-LDL in the absence of the test compound.

Test [3] has as its target T2, SMase-treated LDL (Homo sapiens, UniProt P04114).
T2 construct: from tissue; host or cells: pooled normolipemic human plasma
The test can be described thus: Anti-LDL aggregation assay, turbidimetry, aggregation induced by sphingomyelinase (SMase). It is filed as biochemical. The settings on record: peptide 10 μM (compound/ApoB-100 4.7/1), human LDL 1.44 mg/mL, 40 U/L Bacillus cereus SMase, 18 hours, 37° C., absorbance at 405 nm, Equation I. The method, then:
as §1, §2, §3, §4, §5, §6, §7

T2 sequence (P04114 28-4563): as above

Regarding `CC(=O)N[C@H](CO)C(=O)N[C@H](CCC(=O)O)C(=O)N[C@H](CC(=O)O)C(=O)N[C@H](CC(N)=O)C(=O)N[C@H](CCCNC(=N)N)C(=O)N[C@H](CC(=O)O)C(=O)N[C@H](CCC(=O)O)C(=O)N[C@H](CCC(=O)O)C(=O)N[C@H](CCCNC(=N)N)C(N)=O` [Example 6, Ac-D-Ser-D-Glu-D-Asp-D-Asn-D-Arg-D-Asp-D-Glu-D-Glu-D-Arg-NH2] (Ac-[dS][dE][dD][dN][dR][dD][dE][dE][dR]-NH2), the inhibition at 10 µM worked out at 15.3% in test [1] and 85% in test [3]. The “CE/FC ratio decrease (%)” value in test [2] turned out to be 58.8%.
On to `CC(=O)N[C@H](CO)C(=O)N[C@H](CCC(=O)O)C(=O)N[C@H](CC(=O)O)C(=O)N[C@H](CC(N)=O)C(=O)N[C@H](CCCCN)C(=O)N[C@H](CC(=O)O)C(=O)N[C@H](CCC(=O)O)C(=O)N[C@H](CCC(=O)O)C(=O)N[C@H](CC(N)=O)C(N)=O` [Example 9, Ac-D-Ser-D-Glu-D-Asp-D-Asn-D-Lys-D-Asp-D-Glu-D-Glu-D-Asn-NH2] (Ac-[dS][dE][dD][dN][dK][dD][dE][dE][dN]-NH2), for which the figures for the inhibition at 10 µM in test [1] and in test [3] were 36.4% and 91%, respectively. In test [2], the “CE/FC ratio decrease (%)” value was found to be 58.8%.
Regarding `CC(=O)N[C@H](CO)C(=O)N[C@H](CCC(=O)O)C(=O)N[C@H](CC(=O)O)C(=O)N[C@H](CC(N)=O)C(=O)N[C@H](C)C(=O)N[C@H](CC(=O)O)C(=O)N[C@H](CCC(=O)O)C(=O)N[C@H](CCC(=O)O)C(=O)N[C@H](C)C(N)=O` [Example 3, Ac-D-Ser-D-Glu-D-Asp-D-Asn-D-Ala-D-Asp-D-Glu-D-Glu-D-Ala-NH2] (Ac-[dS][dE][dD][dN][dA][dD][dE][dE][dA]-NH2), the inhibition at 10 µM worked out at 37.2% in test [1] and 90% in test [3].
`CC(=O)N[C@H](CC(=O)O)C(=O)N[C@H](CC(N)=O)C(=O)N[C@H](CC(=O)O)C(=O)N[C@H](CO)C(=O)N[C@H](CCC(=O)O)C(=O)N[C@H](CC(=O)O)C(=O)N[C@H](CC(N)=O)C(=O)N[C@H](CO)C(=O)N[C@H](CC(=O)O)C(=O)N[C@H](CCC(=O)O)C(=O)N[C@H](CCC(=O)O)C(=O)N[C@H](CC(N)=O)C(N)=O` [Example 10, Ac-D-Asp-D-Asn-D-Asp-D-Ser-D-Glu-D-Asp-D-Asn-D-Ser-D-Asp-D-Glu-D-Glu-D-Asn-NH2] (Ac-[dD][dN][dD][dS][dE][dD][dN][dS][dD][dE][dE][dN]-NH2): the inhibition at 10 µM in test [1] was 94%; in test [3] it was 96%. The “CE/FC ratio decrease (%)” value in test [2] was 78.4%.
In the case of `CC(=O)N[C@H](CC(=O)O)C(=O)N[C@H](CO)C(=O)N[C@H](CCC(=O)O)C(=O)N[C@H](CC(=O)O)C(=O)N[C@H](CC(N)=O)C(=O)N[C@H](CCCCN)C(=O)N[C@H](CC(=O)O)C(=O)N[C@H](CCC(=O)O)C(=O)N[C@H](CCC(=O)O)C(=O)N[C@H](C)C(N)=O` [Example 19, Ac-D-Asp-D-Ser-D-Glu-D-Asp-D-Asn-D-Lys-D-Asp-D-Glu-D-Glu-D-Ala-NH2] (Ac-[dD][dS][dE][dD][dN][dK][dD][dE][dE][dA]-NH2), the inhibition at 10 µM was found to be 46.2% in test [1] and 87.5% in test [3]. The “CE/FC ratio decrease (%)” value in test [2] is 17.7%.
With `CC(=O)N[C@H](CC(N)=O)C(=O)N[C@H](CC(=O)O)C(=O)N[C@H](CO)C(=O)N[C@H](CCC(=O)O)C(=O)N[C@H](CC(=O)O)C(=O)N[C@H](CC(N)=O)C(=O)N[C@H](CO)C(=O)NC(CC(=O)O)C(=O)N[C@H](CCC(=O)O)C(=O)N[C@H](CCC(=O)O)C(=O)N[C@H](C)C(N)=O` (stereo partly drawn) [Example 14, Ac-D-Asn-D-Asp-D-Ser-D-Glu-D-Asp-D-Asn-D-Ser-D-Asp-D-Glu-D-Glu-D-Ala-NH2] (Ac-[dN][dD][dS][dE][dD][dN][dS][ξD][dE][dE][dA]-NH2), the inhibition at 10 µM was 74% in test [1] and 68.3% in test [3]. Further, the “CE/FC ratio decrease (%)” value in test [2] was 62.7%.
The corresponding values for `CC(=O)N[C@H](CC(=O)O)C(=O)N[C@H](CO)C(=O)N[C@H](CCC(=O)O)C(=O)N[C@H](CC(=O)O)C(=O)N[C@H](CC(N)=O)C(=O)N[C@H](CO)C(=O)N[C@H](CC(=O)O)C(=O)N[C@H](CCC(=O)O)C(=O)N[C@H](CCC(=O)O)C(=O)N[C@H](C)C(N)=O` [Example 15, Ac-D-Asp-D-Ser-D-Glu-D-Asp-D-Asn-D-Ser-D-Asp-D-Glu-D-Glu-D-Ala-NH2] (Ac-[dD][dS][dE][dD][dN][dS][dD][dE][dE][dA]-NH2) are 95.9%, 96% and 90.2%.
For `CC(=O)N[C@H](CO)C(=O)N[C@H](CCC(=O)O)C(=O)N[C@H](CC(=O)O)C(=O)N[C@H](CC(N)=O)C(=O)N[C@H](CCCNC(=N)N)C(=O)N[C@H](CC(=O)O)C(=O)N[C@H](CCC(=O)O)C(=O)N[C@H](CCC(=O)O)C(=O)N[C@H](CC(C)C)C(N)=O` [Example 7, Ac-D-Ser-D-Glu-D-Asp-D-Asn-D-Arg-D-Asp-D-Glu-D-Glu-D-Leu-NH2] (Ac-[dS][dE][dD][dN][dR][dD][dE][dE][dL]-NH2), the inhibition at 10 µM was -1.9% in test [1] and 44.7% in test [3].
Regarding `CC(=O)N[C@H](CO)C(=O)N[C@H](CCC(=O)O)C(=O)N[C@H](CC(=O)O)C(=O)N[C@H](CCC(N)=O)C(=O)N[C@H](C)C(=O)N[C@H](CCC(=O)O)C(=O)N[C@H](CCC(=O)O)C(=O)N[C@H](CCC(=O)O)C(=O)N[C@H](C)C(N)=O` [Example 5, Ac-D-Ser-D-Glu-D-Asp-D-Gln-D-Ala-D-Glu-D-Glu-D-Glu-D-Ala-NH2] (Ac-[dS][dE][dD][dQ][dA][dE][dE][dE][dA]-NH2), the inhibition at 10 µM was 20.7% in test [1] and 90.1% in test [3].
With `CC(=O)N[C@H](CO)C(=O)N[C@H](CCC(=O)O)C(=O)N[C@H](CC(=O)O)C(=O)N[C@H](CCC(N)=O)C(=O)N[C@H](CO)C(=O)N[C@H](CCC(=O)O)C(=O)N[C@H](CCC(=O)O)C(=O)N[C@H](CCC(=O)O)C(=O)N[C@H](CCC(N)=O)C(N)=O` [Example 4, Ac-D-Ser-D-Glu-D-Asp-D-Gln-D-Ser-D-Glu-D-Glu-D-Glu-D-Gln-NH2] (Ac-[dS][dE][dD][dQ][dS][dE][dE][dE][dQ]-NH2), the values for the inhibition at 10 µM in test [1] and in test [3] were 32.6% and 91.5%, respectively.
`CC(=O)N[C@H](CO)C(=O)N[C@H](CCC(=O)O)C(=O)N[C@H](CC(=O)O)C(=O)N[C@H](CC(N)=O)C(=O)N[C@H](CCCNC(=N)N)C(=O)N[C@H](CC(=O)O)C(=O)N[C@H](CCC(=O)O)C(=O)N[C@H](CCC(=O)O)C(=O)N[C@H](Cc1c[nH]c2ccccc12)C(N)=O` [Example 8, Ac-D-Ser-D-Glu-D-Asp-D-Asn-D-Arg-D-Asp-D-Glu-D-Glu-D-Trp-NH2] (Ac-[dS][dE][dD][dN][dR][dD][dE][dE][dW]-NH2): the inhibition at 10 µM in test [1] was determined as 3.1%; in test [3], 64.2%.
